Measured values taken from ChEMBL document CHEMBL1158542, “Synthesis and biological evaluation of modified pentapeptides as potent proteinase K inhibitors” (Bioorg Med Chem Lett, 2010).
The source made the active and inactive calls. The rule behind the calls is not given here.

Tests used:
[1] = Inhibition of proteinase K at 0.25 mM by RT-PCR analysis in presence of BSA
[2] = Inhibition of proteinase K at 0.75 mM pretreated for 1 hr by RT-PCR analysis
[3] = Inhibition of proteinase K at 0.25 to 1 mM pretreated for 1 hr by RT-PCR analysis
HeLa [4] = assay: Inhibition of proteinase K in human HeLa cells assessed as beta-actin RNA level at 0.5 mM by RT-PCR analysis; type: cell-based
[5] = Inhibition of proteinase K at 0.5 mM pretreated for 1 hr by RT-PCR analysis
HeLa [6] = assay: Inhibition of proteinase K in human HeLa cells assessed as beta-actin RNA level at 0.10 mM by RT-PCR analysis; type: cell-based
[7] = Inhibition of proteinase K at 0.10 mM by RT-PCR analysis in presence of BSA
[8] = Inhibition of proteinase K at 0.05 mM pretreated for 1 hr by RT-PCR analysis

**Q.** For `COC(=O)CCC(=O)N[C@@H](C)C(=O)N[C@H](C)C(=O)N[C@@H](C)C(=O)N1CCC[C@H]1C(=O)N[C@H](C(=O)CCl)C(C)C`, which inhibition [1] is on record?
**A.** Its inhibition is “Active”.

**Q.** What about the inhibition [2] of the same molecule?
**A.** The inhibition was “Active”.

**Q.** What about the inhibition [3] of the same molecule?
**A.** Its inhibition is “Active”.

**Q.** And the inhibition (HeLa [4])?
**A.** Its inhibition is “Active”.

**Q.** What about the inhibition [5] of the same molecule?
**A.** The inhibition was “inactive”.

**Q.** Which inhibition (HeLa [6]) does the source give for `COC(=O)CCC(=O)N[C@@H](C)C(=O)N[C@H](C)C(=O)N[C@@H](C)C(=O)N1CCC[C@H]1C(=O)N[C@@H](CC(C)C)C(=O)CCl` here?
**A.** Its inhibition is “Active”.

**Q.** What about the inhibition [7] of the same molecule?
**A.** The inhibition was “Active”.

**Q.** And the inhibition [8]?
**A.** The inhibition was “Active”.
